Key:
[1] = tested on: 22RV1/PIM-1 xenografts; experiment: 22RV1/PIM-1 over-expression tumor xenograft; assay type: in vivo, mouse; details: mice bearing 22RV1 or 22RV1/PIM-1 xenografts
Text: (§1) Male and female Nu/Nu mice were purchased from Harlan Sprague Dawley (Indianapolis, Ind.). Female Nu/Nu mice were used for all xenograft evaluations with the exception of the PC-3 xenografts where male Nu/Nu mice were used. Cell lines were expanded in vitro in complete media, and if adherent were harvested by trypsin-EDTA, centrifuged and resuspended in PBS 1:1 with Matrigel (BD Bioscienes). Cells were inoculated subcutaneously in the right hind flank of mice. When tumors reached 100-200 mm^3 by caliper measurement, mice were randomized and dosing of SGI-9481 or vehicle control began and continued every day for 5 days (QD×5) with 2 days off for 18-21 days. Tumor volumes and body weights were determined twice a week, and tumor weights were measured at the completion of the translational xenograft studies.
(§2) The prostate cancer cell line 22RV1 engineered to over-express PIM-1 as previously described (Mumenthaler, et al, Mol. Cancer Ther., 2009, 8(10)2882-93) was evaluated in vivo. A second model engineered to over-express PIM-2 was established using the NIH-3T3 mouse fibroblast cell line.

[2] = tested on: NIH-3T3/PIM-2 xenografts; experiment: NIH-3T3/PIM-2 over-expression tumor xenograft; assay type: in vivo, mouse; details: mice bearing NIH-3T3 or NIH-3T3/PIM-2 xenografts
Text: as §1, §2

[3] = tested on: UM-UC-3 cells; experiment: Colony formation assay, UM-UC-3; assay type: cell-based
Procedure: (§3) For shRNA growth experiments, 500 UM-UC-3 cells were seeded in a 12-well plate 48 hours post-transduction and cultured for 8-10 days at 37° C. in 5% CO2. Cells were fixed with 4% paraformaldehyde in PBS, washed twice with PBS, and stained with a crystal violet solution (1% crystal violet, 10% ethanol in water). Stained cells were washed thrice with water, and imaged after drying on a GelCount colony counter (Oxford Optronix Ltd., Oxford, UK). Total staining intensity per well was determined by lysis of cells with 200 μl of Triton X-100 lysis buffer (1% Triton X-100, 50 mM Tris-HCl pH 7.4, 150 mM NaCl, 1 mM EDTA). Lysates (100 μl) from each well were transferred to a clear 96-well plate and absorbance at 560 nm was determined on an Envision microplate reader. IC50 values were determined using GraphPad Prism software. For compound treated PC-3 and UM-UC-3, cells were seeded and stained as above, but were incubated with various concentrations of test compound or DMSO one day after seeding.
(§4) Translational models were also explored for PIM dependency using shRNA knockdown. The UM-UC-3 urinary epithelial bladder carcinoma cell line was used to verify and validate dependency on PIM-1 for growth. […] Reduction of PIM-1 mRNA and growth also were observed using both PIM-1 and PIM-2 shRNA in the androgen-independent prostate carcinoma cell line PC-3 (data not shown).

[4] = tested on: PC-3 cells; experiment: Colony formation assay, PC-3; assay type: cell-based
Procedure: as §3, §4

[5] = tested on: UM-UC-3 xenograft tumors; experiment: Established UM-UC-3 mouse xenograft tumors; assay type: in vivo; details: oral dosing of 200 mg/kg
Text: as §1, with “When tumors reached 100-200 mm^3 by caliper measurement, mice were randomized and dosing of SGI-9481 or vehicle control began and continued every day for 5 days (QD×5) with 2 days off for 18-21 days.” left out

[6] = tested on: PC-3 xenograft tumors; experiment: Established PC-3 mouse xenograft tumors; assay type: in vivo; details: oral dosing of 200 mg/kg
Text: as §1, with “When tumors reached 100-200 mm^3 by caliper measurement, mice were randomized and dosing of SGI-9481 or vehicle control began and continued every day for 5 days (QD×5) with 2 days off for 18-21 days.” left out

[7] = tested on: ML-2 cells (wild-type FLT3) xenografts; experiment: ML-2 (wild-type FLT3) mouse xenograft; assay type: in vivo
Text: as §1

[8] = Pharmacokinetic studies of PC-3 tumor-burdened mice; assay type: in vivo, mouse; details: 200 mg/kg dosing
[9] = tested on: MV-4-11; experiment: In vitro viability assay, MV-4-11; assay type: cell-based
Procedure: (§5) Adherent or suspension cancer cell lines were seeded at 2000-5000 cells/well in a 96-well plate, or 1000-2000 cells/well in a 384-well plate. Suspension cells were treated with drug the same day as seeding, while adherent cells were incubated overnight at 37° C. in 5% CO2 prior to drug treatment. All cells were treated for 72 hours, then lysed with ATPlite (Perkin Elmer) and measured on an Envision microplate reader. IC50 values were determined using GraphPad Prism software.
(§6) Over 35 cell lines were tested, and the most sensitive cell lines from various indications were selected and verified by multiple EC50 determinations (FIG. 6). […] Anti-proliferative activity using PIM-2 shRNA against FLT3-ITD driven leukemia lines has been observed (Adam (2006) Cancer Res 66:3828-35 data not shown).

[10] = tested on: MOLM-13; experiment: In vitro viability assay, MOLM-13; assay type: cell-based
Procedure: as §5, §6

| Structure (SMILES) | changes in body weight [1] | changes in body weight [2] | colony growth [3] | colony growth [4] | changes in body weight or gross adverse toxicity [5] | tumor growth measured by volume (caliper) and by final tumor weight [5] | changes in body weight or gross adverse toxicity [6] | tumor growth measured by volume (caliper) and by final tumor weight [6] | tumor growth [7] | plasma levels [8] | tumor tissue levels [8] | sensitivity of cell line [9] | sensitivity of cell line [10] |
| --- | --- | --- | --- | --- | --- | --- | --- | --- | --- | --- | --- | --- | --- |
| CC(C)(O)[C@H]1CC[C@H](Nc2ccc3ncc(-c4cccc(C(F)(F)F)c4)n3n2)CC1 [Compound 8-31] | No significant changes | No significant changes | reduced | reduced | no significant changes | significantly reduced | no significant changes | significantly reduced | significant tumor growth inhibition | above the in vitro proliferation EC50 | above the in vitro proliferation EC50 | – | – |
| CC(C)(O)[C@H]1CC[C@H](Nc2ccc3ncc(-c4cccc(C(F)(F)F)c4)n3n2)CC1 [SGI-9481] | – | – | – | – | – | – | – | – | – | – | – | particularly sensitive | particularly sensitive |
